Measurements from US12358921B2, “Antiviral heterocyclic compounds” (priority 2022, dated 2025).

Columns and labels:
[1] = system: HUMAN RSV-A (“LONG” STRAIN); test: RSV-A assay (CPE, ATPlite) in Hep-2 cells; format: cell-based; conditions: human respiratory syncytial virus, 120 h, MOI 0.1, 5-day incubation
How it was run: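 Hep-2 cells (8,000/well) given 2-fold serial compound dilutions in duplicate, then infected with RSV-A Long strain at MOI 0.1. After 5 days, virus-induced cytopathic effect quantified as cellular ATP by ATPlite luminescence, against virus-only and uninfected controls; EC50 reported in ranges.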

[2] = system: hMPV A2 TN/94-49; test: HMPV antiviral assay Method 1 (LLC-MK2 cells, ATP-Lite); format: cell-based; conditions: hMPV A2 TN/94-49, LLC-MK2 cells
Experimental: In vitro HMPV antiviral activity was evaluated using the clinical isolate A2 strain TN 94-49 (obtained from Dr. John Williams, Vanderbilt University, Tennessee) and […] cells (ATCC #CCL-7), an immortalized kidney epithelial cell line from Macaca mulatta. Compounds were resuspended in dimethyl sulfoxide (DMSO) at 10 mM, serially diluted and added to a 384-well source plate. Subsequently, the compounds were diluted and transferred onto 384-well assay plates using the Echo-650 automated liquid handling system (Beckman Coulter, Indiana). The test compounds were assessed in duplicate at a top concentration of 2 μM followed by 2.5-fold serial dilutions to give a total of 10 concentration points. DMSO control wells were also included on the assay plates and were either infected or not, acting as positive and negative controls. A2 TN 94-49 virus infections were performed in-suspension with LLC-MK2 cells. The cells were washed twice with PBS and removed from the cell-culture flask with 0.25% trypsin-EDTA (Thermo Fisher Scientific, MA). The trypsin-EDTA was inactivated by resuspending in 2% fetal bovine serum (FBS) and OptiMEM (ThermoFisher Scientific, MA) containing 1% penicillin-streptomycin. Cells were pelleted by centrifuging for 5 minutes at 800 rpm, the supernatant was removed, and cells were re-suspended and washed in PBS plus 100 μg/mL CaCl2). This step was performed twice. Cells were then re-suspended in serum-free (SF)-OptiMEM containing 4 μg/mL TPCK-Trypsin (Sigma Aldrich, MO), 1% penicillin-streptomycin (ThermoFisher Scientific, MA) and 100 μg/mL CaCl2). Cells were counted and seeded at a density of 5,000 cells/well, 12.5 μL/well. Virus infections were done at a multiplicity of infection (MOI) of 0.005 with 12.5 μL added per well. Virus infections were performed in infection media which contained SF-OptiMEM, 100 μg/mL CaCl2) and 1% penicillin-streptomycin. HMPV viral stocks are suspended in infection media+5% glycerol, thus an equal volume of infection media+5% glycerol was added to uninfected wells to equalize the final % glycerol across all wells of the assay plate. The final concentration of TPCK-trypsin was 2 μg/mL. The assay plates were incubated at 37° C., 5% CO2 for 7 days. After 7 days incubation, 12.5 μL of ATP-Lite (PerkinElmer, MA) was added to each well and the raw luminescence values were determined using the Envision 2104 (Perkin Elmer, MA). The average of the raw luminescence values for the cells and virus only positive control wells was subtracted from all conditions tested and the percent cell health was determined by dividing these values by the average of the cells only negative control wells. EC50 values were then calculated by non-linear regression using a four-parameter curve logistic equation. The curve fit model employed was XLFit Dose Response One Site Model 200: y=(A+(B/(1+((x/C)^D)))), where A is the minimum y value, B is the maximum y value, C is the log EC50value, and D is the slope factor. Method 2: In Vitro HMPV Antiviral Activity was Evaluated Using the Clinical Isolate A2 Strain TN 94-49

Row | Compound | EC50 [1] | EC50 [2]
1 | COc1cc(C(=O)NC[C@@](O)(c2cccc(F)c2)c2cc3c(c(-c4ccc(F)c(Cl)c4Cl)n2)OC[C@]3(C)C(N)=O)cc2oc(C)nc12 [Example 279] | < 200 nM | < 500 nM
2 | [2H]C([2H])([2H])c1cc2cc(C(=O)NC[C@](O)(c3cc4c(c(-c5ccc(F)c(Cl)c5)n3)OC[C@]4(C)C(N)=O)C(F)(F)F)cc(OC)c2nc1C [Example 20] | < 200 nM | > 500 nM
3 | COc1cc(C(=O)NC[C@@](O)(c2ccc(F)cc2)c2cc3c(c(-c4cc(Cl)c(F)cc4F)n2)OC[C@]3(C)C(N)=O)cc2cc(C3CC3)nn12 [Example 15] | < 200 nM | < 500 nM
4 | COc1cc(C(=O)NCC(O)(c2csc(Cl)c2)c2cc3c(c(-c4cc(Cl)c(F)cc4F)n2)OC[C@]3(C)C(N)=O)cc2cn(C3CC3)nc12 (stereo partly shown) [Example 471] | < 200 nM | < 500 nM
5 | [2H]C([2H])([2H])c1nc2c(OC)cc(C(=O)NC[C@](O)(c3cc4c(c(-c5cc(F)c(F)cc5F)n3)OC[C@]4(C)C(N)=O)C3CC3)cc2cc1Br [Example 7] | < 200 nM | < 500 nM
6 | COc1cc(C(=O)NC[C@](O)(c2cc3c(c(-c4cc(F)c(F)c(F)c4Cl)n2)OC[C@]3(C)C(N)=O)C(F)(F)F)cc2cn(C3CC3)nc12 [Example 59] | < 200 nM | < 500 nM
7 | COc1cc(C(=O)NC[C@](O)(c2cc3c(c(-c4cc(Cl)cc(C)c4F)n2)OC[C@]3(C)C(N)=O)C2CC2)cc2cn(C3CC3)nc12 [Example 47] | < 200 nM | > 500 nM
8 | [2H]C([2H])([2H])c1nc2c(OC)cc(C(=O)NC[C@@](O)(c3ccc(F)cc3)c3cc4c(c(-c5ccc6c(c5Cl)OC(F)(F)O6)n3)OC[C@]4(C)C(N)=O)cc2s1 [Example 27] | < 200 nM | < 500 nM
9 | [2H]C([2H])([2H])c1nc2c(OC)cc(C(=O)NC[C@](O)(c3cc4c(c(-c5ccc(F)c(Cl)c5Cl)n3)OC[C@]4(C)C(N)=O)C3CC3)cc2cc1Br [Example 24] | < 200 nM | < 500 nM
10 | COc1cc(C(=O)NC[C@](O)(c2cc3c(c(-c4ccc(Cl)c(Cl)c4Cl)n2)OC[C@]3(C)C(N)=O)C2CC2)cc2cn(C3CC3)nc12 [Example 60] | < 200 nM | < 500 nM
11 | C[C@]1(C(N)=O)COc2c1cc([C@@](O)(CNC(=O)c1ccc3nc(N)sc3c1)c1ccccc1)nc2-c1ccc2c(c1Cl)OC(F)(F)O2 [Example 256] | < 200 nM | < 500 nM
12 | [2H]C([2H])([2H])c1nc2c(OC)cc(C(=O)NC[C@@](O)(c3ccccc3)c3cc4c(c(-c5ccc(F)c(Cl)c5Cl)n3)OC[C@]4(C)C(N)=O)cc2s1 [Example 273] | < 200 nM | < 500 nM
13 | COc1cc(C(=O)NC[C@](O)(c2cc3c(c(-c4cc(Cl)cc(Cl)c4Cl)n2)OC[C@]3(C)C(N)=O)C2CC2)cc2cn(C3CC3)nc12 [Example 61] | < 200 nM | < 500 nM
14 | [2H]c1nc2c(OC(F)F)cc(C(=O)NC[C@@](O)(c3ccccc3)c3cc4c(c(-c5cc(Cl)c(F)cc5F)n3)OC[C@]4(C)C(N)=O)cc2cc1C([2H])([2H])[2H] [Example 217] | < 200 nM | < 500 nM
15 | COc1cc(C(=O)NC[C@@](O)(c2ccc(F)cc2)c2cc3c(c(-c4ccc(F)c(Cl)c4Cl)n2)OC[C@]3(C)C(N)=O)cc2cn(C(F)F)nc12 [Example 42] | < 200 nM | < 500 nM
16 | COc1cc(C(=O)NC[C@@](O)(c2ccccc2)c2cc3c(c(-c4ccc5c(c4Cl)OC(F)(F)O5)n2)OC[C@]3(C)C(N)=O)cc2cn(C(F)F)nc12 [Example 253] | < 200 nM | < 500 nM

Row | Compound | EC50 [1] | EC50 [2]
17 | [2H]C([2H])([2H])c1nc2c(OC)cc(C(=O)NC[C@@](O)(c3ccsc3)c3cc4c(c(-c5cc(Cl)c(F)cc5F)n3)OC[C@]4(C)C(N)=O)cc2s1 [Example 176] | < 200 nM | < 500 nM
18 | COc1cc(C(=O)NC[C@@](O)(c2ccsc2)c2cc3c(c(-c4cc(F)c(F)cc4F)n2)OC[C@]3(C)C(N)=O)cc2cn(C3CC3)nc12 [Example 177] | < 200 nM | < 500 nM
19 | [2H]c1c([2H])c([2H])c([C@](O)(CNC(=O)c2cc(OC)c3nn(C4CC4)cc3c2)c2cc3c(c(-c4cc(Cl)c(F)cc4F)n2)OC[C@]3(C)C(N)=O)c([2H])c1[2H] [Example 169] | < 200 nM | < 500 nM
20 | COc1cc(C(=O)NC[C@@](O)(c2cc3c(c(-c4cc(F)c(F)c(F)c4Cl)n2)OC[C@]3(C)C(N)=O)C(F)(F)F)cc2cn(C3CC3)nc12 [Example 58] | < 200 nM | > 500 nM
21 | COc1cc(C(=O)NC[C@](O)(c2cc3c(c(-c4cc(Cl)c(C)cc4F)n2)OC[C@]3(C)C(N)=O)C2CC2)cc2cn(C3CC3)nc12 [Example 51] | < 200 nM | > 500 nM
22 | COc1cc(C(=O)NC[C@@](O)(c2ccccc2)c2cc3c(c(-c4ccc(F)c(Cl)c4Cl)n2)OC[C@]3(C)C(N)=O)cc2cn(C3CC3)nc12 [Example 257] | < 200 nM | < 500 nM
23 | COc1cc(C(=O)NC[C@](O)(c2cc3c(c(-c4cc(Cl)c(F)cc4F)n2)OC[C@]3(C)C(N)=O)c2cc(C)cs2)cc2cn(C3CC3)nc12 [Example 467] | < 200 nM | < 500 nM
24 | COc1cc(C(=O)NC[C@@](O)(c2ccccc2)c2cc3c(c(-c4cc(Cl)c(F)cc4F)n2)OC[C@]3(C)C(=O)NC2CC2)cc2cn(C3CC3)nc12 [Example 143] | < 200 nM | < 500 nM
25 | COc1cc(C(=O)NC[C@@](O)(c2cc3c(c(-c4cc(Cl)c(F)cc4F)n2)OC[C@]3(C)C(N)=O)c2cnn[nH]2)cc2cn(C3CC3)nc12 [Example 181] | > 200 nM | > 500 nM
26 | COc1cc(C(=O)NC[C@](O)(c2cc3c(c(-c4cc(Cl)c(F)cc4F)n2)OC[C@]3(C)C(N)=O)c2ccccc2F)cc2cc(C3CC3)nn12 [Example 137] | < 200 nM | < 500 nM
27 | [2H]C([2H])([2H])c1nc2ccc(C(=O)NC[C@@](O)(c3ccccc3)c3cc4c(c(-c5cc(Cl)c(F)cc5F)n3)OC[C@]4(C)C(N)=O)cc2o1 [Example 87] | < 200 nM | < 500 nM
28 | COc1cc(C(=O)NC[C@](O)(c2cc3c(c(-c4ccc5c(c4Cl)OC(F)(F)O5)n2)OC[C@]3(C)C(N)=O)C(F)(F)F)cc2cn(C3CC3)nc12 [Example 52] | < 200 nM | > 500 nM
29 | C[C@]1(C(N)=O)COc2c1cc([C@@](O)(CNC(=O)c1cc(Cl)c3nn(C4CC4)cc3c1)C1CC1)nc2-c1ccc2c(c1Cl)OC(F)(F)O2 [Example 35] | < 200 nM | < 500 nM
30 | COc1cc(C(=O)NC[C@@](O)(c2ccsc2)c2cc3c(c(-c4cc(Cl)c(F)cc4F)n2)OC[C@]3(C)C(N)=O)cc2cn(C(F)F)nc12 [Example 174] | < 200 nM | < 500 nM
31 | COc1cc(C(=O)NC[C@](O)(c2cc3c(c(-c4cc(F)c(F)cc4F)n2)OC[C@]3(C)C(N)=O)C2CC(F)(F)C2)cc2cn(C3CC3)nc12 [Example 31] | < 200 nM | < 500 nM
32 | [2H]C([2H])([2H])c1nc2c(OC)cc(C(=O)NC[C@@](O)(c3ccccc3)c3cc4c(c(-c5cc(Cl)c(F)cc5F)n3)OC[C@]4(C)C(N)=O)cc2s1 [Example 155] | < 200 nM | < 500 nM
